Data as given in patent US8247211B2, “Glycopeptide antibiotics” (American Cyanamid Company, priority 2001, dated 2012).
≈ marks a conversion by molar mass, not a printed value. Like-named read-outs stand apart in the source and are kept apart here.

Columns and labels:
[1] = Anatomic pathology (heart and kidney histopathology) in mice; type: in vivo, CD-1 mice; conditions: 20 mg/kg intravenously daily for 9 days, microscopic histopathology on day 10
Method: 20-day-old CD-1 mice were divided into a vehicle control group (5 mice) and a treatment group (5 mice). Samples of glycopeptide antibiotics were administered at 20 mg/kg intravenously daily for 9 days.
Samples of tissues from necropsied mice were formalin-fixed, paraffin-embedded, sectioned, stained with hematoxylin and eosin, and examined microscopically. Histopathologic findings were recorded. These findings were subjectively graded on a scale corresponding to slight, mild, moderate, marked and severe as compared to untreated controls.

Enterococcus sp. = assay: In vitro antibacterial evaluation: minimum inhibitory concentration (MIC), broth dilution method; type: cell-based
Method in brief: (§1)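 MIC read as lowest drug level preventing visible growth. Organisms at 5×10^5 CFU/mL were exposed to a 64-0.06 μg/mL dilution series in Muller-Hinton II […] following NCCLS broth dilution standard M7-A2.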

Staphylococcus sp. = assay: as above; type: cell-based; conditions: for MIC Coagulase Negative Staphylococcus (GC 4537): strain GC 4537; for MIC Coagulase Negative Staphylococcus (GC 4538): strain GC 4538; for MIC Staphylococcus aureus-SMITH (GC 4536): strain SMITH GC 4536
Method in brief: as §1

Escherichia coli [2] = assay: as above; type: cell-based; conditions: for MIC Escherichia coli (GC 4560): strain GC 4560; for MIC Escherichia coli (GC 4559): strain GC 4559
Method in brief: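 Following NCCLS approved standard M7-A2, compounds are serially diluted from 64 to 0.06 μg/mL in Muller-Hinton II […] and inoculated at 5×10^5 CFU/mL; the MIC is the minimum concentration at which growth is inhibited.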

[3] = tested on: Staphylococcus aureus-SMITH (GC 4543); assay: Acute lethal infection in mice (ED50); type: in vivo; conditions: female CD-1 mice, intraperitoneal challenge, intravenous dose 30 min. after infection, 7 day survival ratios
Method: The therapeutic effects of glycopeptide antibiotics of Formula I are determined against acute lethal infections with S. aureus (strain Smith), a penicillin resistant strain of S. pneumoniae (strain GC 1894), and a vancomycin resistant strain of E. fecalis (strain GC 6189 and GC 2246). Female mice, CD-1 (Charles River Laboratories), 20 +1-2 gm, are challenged by intraperitoneal injection of sufficient bacteria (suspended in Trypticase Soy Broth or hog gastric mucin) to kill non-treated controls within 24-48 hr. Antibacterial agents, contained in 0.2 mL of saline or 5% dextrose solution, are administered intravenously 30 min. after infection. Five mice are treated at each dose level. The 7 day survival ratios from 3 separate tests are pooled for calculation of median effective dose (ED50).

Escherichia coli [4] = assay: In vitro antibacterial evaluation: minimum inhibitory concentration (MIC), broth dilution method; type: cell-based
Streptococcus sp. = assay: as above; type: cell-based
Method in brief: as §1

[5] = broth dilution, 18 hours at 35° C.

CC(c1ccccc1)C1NC(=O)CNC(=O)C(CO)NC(=O)C(C(O)C2CNC(=NCc3ccccc3)N2C2OC(CO)C(O)C(O)C2O)NC(=O)C(C(O)C2CNC(=N)N2)NC(=O)C(Cc2ccc(OC3OC(CO)C(OC4OC5COC6(OC5C(O)C4O)C4CC5CC(C4)CC6C5)C(O)C3O)cc2)NC1=O (stereo not drawn) [Example 76, Cyclo[glycyl-β-methylphenylalanyl-O-[4-O-[4,6-O-(2-adamantylidene)hexopyranosyl]hexopyranosyl]tyrosyl-3-(2-iminoimidazolidin-4-yl)seryl-3-[2-(benzylimino)-3-hexopyranosylimidazolidin-4-yl]serylseryl]]
Anatomical Pathology (Day 10), Heart [1]: 0 | Anatomical Pathology (Day 10), Kidney [1]: ++ | MIC Enterococcus faecium (GC 2243) (Enterococcus sp.; strain GC 2243): 2 to 8 µg/mL | MIC Enterococcus faecalis (GC 4553) (Enterococcus sp.; strain GC 4553): 4 to 8 µg/mL | MIC Enterococcus faecium (GC 4557) (Enterococcus sp.; strain GC 4557): 1 to 2 µg/mL | MIC Enterococcus avium (GC 4558) (Enterococcus sp.; strain GC 4558): 2 to 8 µg/mL | MIC Coagulase Negative Staphylococcus (GC 4547) (Staphylococcus sp.; [5]): 2 to 4 µg/mL | MIC Coagulase Negative Staphylococcus (GC 4548) (Staphylococcus sp.; [5]): 2 to 4 µg/mL | MIC Coagulase Negative Staphylococcus (GC 4549) (Staphylococcus sp.; [5]): 2 to 4 µg/mL | MIC Coagulase Negative Staphylococcus (GC 4551) (Staphylococcus sp.; [5]): 2 to 8 µg/mL | MIC Coagulase Negative Staphylococcus (GC 6257) (Staphylococcus sp.; [5]): 0.5 to 2 µg/mL | MIC Staphylococcus aureus (ATCC 29213) (Staphylococcus sp.; [5]): 2 to 8 µg/mL | MIC Staphylococcus aureus (GC 1131) (Staphylococcus sp.; [5]): 4 to 8 µg/mL | MIC Staphylococcus aureus (GC 3051) (Staphylococcus sp.; [5]): 2 to 8 µg/mL | MIC Staphylococcus aureus (GC 3053) (Staphylococcus sp.; [5]): 2 to 8 µg/mL | MIC Staphylococcus aureus (GC 4541) (Staphylococcus sp.; [5]): 2 to 4 µg/mL | MIC Staphylococcus aureus (GC 4542) (Staphylococcus sp.; [5]): 2 to 8 µg/mL | MIC Staphylococcus aureus (GC 4544) (Staphylococcus sp.; [5]): 4 to 8 µg/mL | MIC Staphylococcus aureus (GC 4545) (Staphylococcus sp.; [5]): 2 to 8 µg/mL | MIC Staphylococcus aureus SMITH (GC 4543) (Staphylococcus sp.; [5]): 1 to 4 µg/mL | MIC Staphylococcus haemolyticus (GC 4546) (Staphylococcus sp.; [5]): 2 to 4 µg/mL | MIC Staphylococcus aureus-SMITH (GC 4543) (Staphylococcus sp.; strain SMITH GC 4543, broth dilution, 18 hours at 35° C.): 1 to 4 µg/mL | MIC Escherichia coli (GC 4560) (Escherichia coli [2]): 2 to 4 µg/mL

CCCCCC(=O)OCC1OC(OC2C(CO)OC(Oc3ccc(CC4NC(=O)C(C(C)c5ccccc5)NC(=O)CNC(=O)C(CO)NC(=O)C(C(O)C5CNC(=N)N5C5OC(CO)C(O)C(O)C5O)NC(=O)C(C(O)C5CNC(=N)N5)NC4=O)cc3)C(O)C2O)C(O)C(O)C1O (stereo not drawn) [Example 95b, Cyclo[glycyl-β-methylphenylalanyl-O-[4-O-(6-O-hexanoylhexopyranosyl)hexopyranosyl]-tyrosyl-3-[2-iminoimidazolidin-4-yl)seryl-3-(3-hexopyranosyl-2-iminoimidazolidin-4-yl)-serylseryl]]
median effective dose (ED50), Staphylococcus aureus-SMITH (GC 4543) [3]: 4 mg/kg | MIC Enterococcus faecalis (GC 2242) (Enterococcus sp.; Enterococcus faecalis (GC 2242), broth dilution, 18 hours at 35° C.): 8 µg/mL (≈ 5.74 µM) | MIC Enterococcus faecalis (ATCC 29212) (Enterococcus sp.; strain ATCC 29212): 4 µg/mL (≈ 2.87 µM) | MIC Enterococcus faecalis (GC 2242) (Enterococcus sp.; strain GC 2242): 8 µg/mL (≈ 5.74 µM) | MIC Enterococcus faecalis (GC 4552) (Enterococcus sp.; strain GC 4552): 8 µg/mL (≈ 5.74 µM) | MIC Staphylococcus aureus (ATCC 29213) (Staphylococcus sp.; [5]): 1 µg/mL (≈ 0.718 µM) | MIC Staphylococcus aureus (GC 1131) (Staphylococcus sp.; [5]): 1 µg/mL (≈ 0.718 µM) | MIC Staphylococcus aureus (GC 4535) (Staphylococcus sp.; [5]): 2 µg/mL (≈ 1.44 µM) | MIC Staphylococcus aureus SMITH (GC 4536) (Staphylococcus sp.; [5]): 1 µg/mL (≈ 0.718 µM) | MIC Coagulase Negative Staphylococcus (GC 4537) (Staphylococcus sp.): 2 µg/mL (≈ 1.44 µM) | MIC Coagulase Negative Staphylococcus (GC 4538) (Staphylococcus sp.): 1 µg/mL (≈ 0.718 µM) | MIC Coagulase Negative Staphylococcus (GC 4547) (Staphylococcus sp.; strain GC 4547): 1 µg/mL (≈ 0.718 µM) | MIC Staphylococcus aureus-SMITH (GC 4536) (Staphylococcus sp.; [5]): 1 µg/mL (≈ 0.718 µM) | MIC Escherichia coli (GC 4559) (Escherichia coli [2]): 64 µg/mL (≈ 45.9 µM) | MIC Escherichia coli (GC 4560) (Escherichia coli [2]): <0.5 µg/mL

CCCCCCC(=O)OCC1OC(OC2C(CO)OC(Oc3ccc(CC4NC(=O)C(C(C)c5ccccc5)NC(=O)CNC(=O)C(CO)NC(=O)C(C(O)C5CNC(=N)N5C5OC(CO)C(O)C(O)C5O)NC(=O)C(C(O)C5CNC(=N)N5)NC4=O)cc3)C(O)C2O)C(O)C(O)C1O (stereo not drawn) [Example 97b, Cyclo[glycyl-β-methylphenylalanyl-O-[4-O-(6-O-heptanoylhexopyranosyl)hexopyranosyl]-tyrosyl-3-(2-iminoimidazolidin-4-yl)seryl-3-(3-hexopyranosyl-2-iminoimidazolidin-4-yl)-serylseryl]]
median effective dose (ED50), Staphylococcus aureus-SMITH (GC 4543) [3]: 8 mg/kg | MIC Enterococcus faecalis (ATCC 29212) (Enterococcus sp.; strain ATCC 29212): 4 µg/mL (≈ 2.84 µM) | MIC Enterococcus faecalis (GC 2242) (Enterococcus sp.; strain GC 2242): 2 µg/mL (≈ 1.42 µM) | MIC Enterococcus faecalis (GC 4552) (Enterococcus sp.; strain GC 4552): 4 µg/mL (≈ 2.84 µM) | MIC Staphylococcus aureus (ATCC 29213) (Staphylococcus sp.; [5]): 1 µg/mL (≈ 0.711 µM) | MIC Staphylococcus aureus (GC 1131) (Staphylococcus sp.; [5]): 1 µg/mL (≈ 0.711 µM) | MIC Staphylococcus aureus (GC 4535) (Staphylococcus sp.; [5]): 1 µg/mL (≈ 0.711 µM) | MIC Staphylococcus aureus SMITH (GC 4536) (Staphylococcus sp.; [5]): 0.5 µg/mL (≈ 0.355 µM) | MIC Coagulase Negative Staphylococcus (GC 4537) (Staphylococcus sp.): 1 µg/mL (≈ 0.711 µM) | MIC Coagulase Negative Staphylococcus (GC 4537) (Staphylococcus sp.; [5]): 1 µg/mL (≈ 0.711 µM) | MIC Coagulase Negative Staphylococcus (GC 4538) (Staphylococcus sp.): 1 µg/mL (≈ 0.711 µM) | MIC Coagulase Negative Staphylococcus (GC 4538) (Staphylococcus sp.; [5]): 1 µg/mL (≈ 0.711 µM) | MIC Coagulase Negative Staphylococcus (GC 4547) (Staphylococcus sp.; strain GC 4547): 1 µg/mL (≈ 0.711 µM) | MIC Coagulase Negative Staphylococcus (GC 4547) (Staphylococcus sp.; strain GC 4547, broth dilution, 18 hours at 35° C.): 1 µg/mL (≈ 0.711 µM) | MIC Staphylococcus aureus-SMITH (GC 4536) (Staphylococcus sp.; [5]): 0.5 µg/mL (≈ 0.355 µM) | MIC Escherichia coli (GC 4559) (Escherichia coli [2]): 32 µg/mL (≈ 22.7 µM) | MIC Escherichia coli (GC 4560) (Escherichia coli [2]): 1 µg/mL (≈ 0.711 µM)

Cyclo[3-[[2-(2,3,4,6-tetra-O-benzoylhexopyranosyl)amino]-1,3-benzoxazol-5-yl]alanyl-3-(2-iminoimidazolidin-4-yl)seryl-3-(3-hexopyranosyl-2-iminoimidazolidin-4-yl)seryl-serylglycyl-β-methylphenylalanyl] [Example 44]
MIC Escherichia coli (ATCC 25922) (Escherichia coli [4]): >64 µg/mL | MIC Escherichia coli (GC 4559) (Escherichia coli [4]): >64 µg/mL | MIC Escherichia coli (GC 4560) (Escherichia coli [4]): 64 µg/mL | MIC Enterococcus avium (GC 4558) (Enterococcus sp.): 4 µg/mL | MIC Enterococcus faecalis (ATCC 29212) (Enterococcus sp.): 16 µg/mL | MIC Enterococcus faecalis (GC 2242) (Enterococcus sp.): 16 µg/mL | MIC Enterococcus faecalis (GC 2691) (Enterococcus sp.): 16 µg/mL | MIC Enterococcus faecalis (GC 3059) (Enterococcus sp.): 32 µg/mL | MIC Enterococcus faecalis (GC 4552) (Enterococcus sp.): 16 µg/mL | MIC Enterococcus faecalis (GC 4553) (Enterococcus sp.): 8 µg/mL | MIC Enterococcus faecalis (GC 4554) (Enterococcus sp.): 32 µg/mL | MIC Enterococcus faecalis (GC 6189) (Enterococcus sp.): 16 µg/mL | MIC Enterococcus faecium (GC 2243) (Enterococcus sp.): 8 µg/mL | MIC Enterococcus faecium (GC 4556) (Enterococcus sp.): 32 µg/mL | MIC Enterococcus faecium (GC 4557) (Enterococcus sp.): 8 µg/mL | MIC Coagulase Negative Staphylococcus (GC 4547) (Staphylococcus sp.): 64 µg/mL | MIC Coagulase Negative Staphylococcus (GC 4548) (Staphylococcus sp.): 8 µg/mL | MIC Coagulase Negative Staphylococcus (GC 4549) (Staphylococcus sp.): 2 µg/mL | MIC Coagulase Negative Staphylococcus (GC 4551) (Staphylococcus sp.): 16 µg/mL | MIC Coagulase Negative Staphylococcus (GC 6257) (Staphylococcus sp.): 8 µg/mL | MIC Staphylococcus aureus (ATCC 29213) (Staphylococcus sp.): 64 µg/mL | MIC Staphylococcus aureus (GC 1131) (Staphylococcus sp.): 64 µg/mL | MIC Staphylococcus aureus (GC 3051) (Staphylococcus sp.): 64 µg/mL | MIC Staphylococcus aureus (GC 3053) (Staphylococcus sp.): 32 µg/mL | MIC Staphylococcus aureus (GC 4541) (Staphylococcus sp.): 64 µg/mL | MIC Staphylococcus aureus (GC 4542) (Staphylococcus sp.): 64 µg/mL | MIC Staphylococcus aureus (GC 4544) (Staphylococcus sp.): 16 µg/mL | MIC Staphylococcus aureus (GC 4545) (Staphylococcus sp.): 16 µg/mL | MIC Staphylococcus aureus SMITH (GC 4543) (Staphylococcus sp.): 32 µg/mL | MIC Staphylococcus aureus-SMITH (GC 4543) (Staphylococcus sp.): 32 µg/mL | MIC Staphylococcus haemolyticus (GC 4546) (Staphylococcus sp.): 64 µg/mL | MIC Streptococcus agalactiae (GC 4564) (Streptococcus sp.): 16 µg/mL | MIC Streptococcus pneumoniae (ATCC 6301) (Streptococcus sp.): 8 µg/mL | MIC Streptococcus pneumoniae (GC 1894) (Streptococcus sp.): 16 µg/mL | MIC Streptococcus pneumoniae (GC 4565) (Streptococcus sp.): 32 µg/mL | MIC Streptococcus pyogenes (GC 4563) (Streptococcus sp.): 4 µg/mL
